Data as given in patent US6509373B1, “Strain of streptomyces, and relevant uses thereof” (Development Center for Biotechnology, priority 1998, dated 2003).
In brackets after ≈: the same amount, converted by molar mass.

Tests used:
Experiment in all cases: Antifungal activity of isolated borrelidin in vitro
P. splendens = format: cell-based, Pythium splendens; details: Globisporangium splendens
Protocol: (§1) 1. The antifungal activity of the isolated borrelidin was tested against P. aphanidermatum, P. splendens, P. sylvaticum, P. capsici and Phytophthora ultimum in vitro.
(§2) 2. The isolated borrelidin was dissolved in methanol. Pasteurized, molten PDA (50 ml) was allowed to cool to 50° C. and mixed with 0.1 ml of borrelidin in methanol. Each fungal strain was tested at a specific concentration (max. 0.2 mg/l), or diluted concentration. A series of five concentrations was used to determine EC50 (the concentration at which 50% fungal growth is inhibited).
(§3) 3. PDA medium (50 ml) was mixed with 0.1 ml of borrelidin in methanol.
(§4) 4. The pathogenic fungi (2 mm mass) were inoculated. A microtitration plate added with methanol was used as control. The inhibition (%) was calculated when the control was fully covered with fungal mass, and EC50 was determined.

P. aphanidermatum = format: cell-based; details: Pythium aphanidermatum
Protocol: as §1, §2, §3, §4

P. capsici = format: cell-based; details: Phytophthora capsici
Protocol: as §1, §2, §3, §4

P. sylvaticum = format: cell-based, Pythium sylvaticum; details: Globisporangium sylvaticum
Protocol: as §1, §2, §3, §4

P. ultimum = format: cell-based, Pythium ultimum; details: Globisporangium ultimum
Protocol: as §1, §2, §3, §4

[1] = 0.025 mg/l in PDA, read-out: Growth Inhibition (%)
[2] = 0.05 mg/l in PDA, read-out: Growth Inhibition (%)
[3] = 0.2 mg/l in PDA, read-out: Growth Inhibition (%)
[4] = concentration at which 50% fungal growth is inhibited

CC1CC(C)CC(C)C(O)/C(C#N)=C\C=C\CC(C2CCCC2C(=O)O)OC(=O)CC(O)C(C)C1 (centres unmarked) [borrelidin, 2-[7-cyano-8,16-dihydro-9,11,13,15-tetramethyl-18-oxooxacyclooctadeca-4,6(E, Z)-diene-2-yl]cyclopentacarboxylic acid]
inhibition at 0.025 µg/mL (P. splendens; [1]): 36% | inhibition at 0.05 µg/mL (P. splendens; [2]): 70% | inhibition at 0.2 µg/mL (P. splendens; [3]): 99% | EC50 (P. splendens; [4]): 0.03 µg/mL (≈ 0.0613 µM) | inhibition at 0.025 µg/mL (P. aphanidermatum; [1]): 14% | inhibition at 0.05 µg/mL (P. aphanidermatum; [2]): 45% | inhibition at 0.2 µg/mL (P. aphanidermatum; [3]): 99% | EC50 (P. aphanidermatum; [4]): 0.06 µg/mL (≈ 0.123 µM) | inhibition at 0.025 µg/mL (P. capsici; [1]): 41% | inhibition at 0.05 µg/mL (P. capsici; [2]): 70% | inhibition at 0.2 µg/mL (P. capsici; [3]): 92% | EC50 (P. capsici; [4]): 0.027 µg/mL (≈ 0.0551 µM) | inhibition at 0.025 µg/mL (P. sylvaticum; [1]): 80% | inhibition at 0.05 µg/mL (P. sylvaticum; [2]): 99% | inhibition at 0.2 µg/mL (P. sylvaticum; [3]): 100% | EC50 (P. sylvaticum; [4]): 0.01 µg/mL (≈ 0.0204 µM) | inhibition at 0.025 µg/mL (P. ultimum; [1]): 0% | inhibition at 0.05 µg/mL (P. ultimum; [2]): 17% | inhibition at 0.2 µg/mL (P. ultimum; [3]): 83% | EC50 (P. ultimum; [4]): 0.1 µg/mL (≈ 0.204 µM)
